Here are results for one molecule from patent US20060094880A9, “Synthetic process for trans-aminocyclohexyl ether compounds” (priority 2003, published 2006).

The assay relates to sustained AF maintained during continuous vagal nerve stimulation. As to the kind of experiment: Canine vagal-AF model: termination of sustained AF during continuous vagal nerve stimulation. The assay is classed as in vivo, Mongrel dogs. The protocol:
St.-Georges et al., 1997). Dogs are ventilated mechanically with room air supplemented with oxygen via an endotracheal tube at 20 to 25 breaths/minute with a tidal volume obtained from a nomogram. […] Catheters are inserted into the femoral artery for blood pressure recording and blood gas measurement, and into both femoral veins for drug administration and venous sampling. […] Body temperature is maintained at 37-40° C. with a heating blanket. The heart is exposed via a medial thoracotomy and a pericardial cradle is created. […] Drug effects to terminate sustained AF maintained during continuous vagal nerve stimulation are assessed. […] The vagal stimulation voltage is adjusted under control conditions, and then readjusted after each treatment to maintain the same bradycardic effect. […] Diastolic threshold and ERP are determined in duplicate and averaged to give a single value. […] The interval from the stimulus artefact and the peak of the local electrogram is measured as an index of conduction velocity. […] The stimulus voltage-heart rate relationship for vagal nerve stimulation is determined under control conditions in most experiments. […] After the termination of AF, the diastolic threshold and ERP of the atrium and ventricle are determined. […] Group data are expressed as the mean ±SEM. […]

As to `O=C(NCC1CCCCN1)c1cc(OCC(F)(F)F)ccc1OCC(F)(F)F` (stereo not shown) [Flecainide], the “Effectiveness as a control in the present study” value is listed as “comparable to that previously reported”.
